This experiment deals with BoNT/A (Clostridium botulinum, UniProt P0DPI1). The class given is cell-based.

Entries after “also recorded” stand apart in the source; their conditions may differ.

Sequence of BoNT/A (P0DPI1 2-448 limits assumed): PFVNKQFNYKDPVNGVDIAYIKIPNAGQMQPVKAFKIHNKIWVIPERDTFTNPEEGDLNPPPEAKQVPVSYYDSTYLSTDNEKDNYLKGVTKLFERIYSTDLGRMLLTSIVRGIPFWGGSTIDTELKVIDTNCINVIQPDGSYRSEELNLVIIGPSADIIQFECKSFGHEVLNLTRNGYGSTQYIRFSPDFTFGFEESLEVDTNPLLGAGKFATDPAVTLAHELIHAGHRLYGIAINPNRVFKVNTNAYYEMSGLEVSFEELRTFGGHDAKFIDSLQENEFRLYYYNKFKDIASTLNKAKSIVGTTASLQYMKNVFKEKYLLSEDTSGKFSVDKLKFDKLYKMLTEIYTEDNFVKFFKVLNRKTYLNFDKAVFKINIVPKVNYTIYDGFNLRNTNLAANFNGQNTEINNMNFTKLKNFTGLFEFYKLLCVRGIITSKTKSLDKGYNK
Sequence of BoNT/A (P0DPI1 449-1296 limits assumed): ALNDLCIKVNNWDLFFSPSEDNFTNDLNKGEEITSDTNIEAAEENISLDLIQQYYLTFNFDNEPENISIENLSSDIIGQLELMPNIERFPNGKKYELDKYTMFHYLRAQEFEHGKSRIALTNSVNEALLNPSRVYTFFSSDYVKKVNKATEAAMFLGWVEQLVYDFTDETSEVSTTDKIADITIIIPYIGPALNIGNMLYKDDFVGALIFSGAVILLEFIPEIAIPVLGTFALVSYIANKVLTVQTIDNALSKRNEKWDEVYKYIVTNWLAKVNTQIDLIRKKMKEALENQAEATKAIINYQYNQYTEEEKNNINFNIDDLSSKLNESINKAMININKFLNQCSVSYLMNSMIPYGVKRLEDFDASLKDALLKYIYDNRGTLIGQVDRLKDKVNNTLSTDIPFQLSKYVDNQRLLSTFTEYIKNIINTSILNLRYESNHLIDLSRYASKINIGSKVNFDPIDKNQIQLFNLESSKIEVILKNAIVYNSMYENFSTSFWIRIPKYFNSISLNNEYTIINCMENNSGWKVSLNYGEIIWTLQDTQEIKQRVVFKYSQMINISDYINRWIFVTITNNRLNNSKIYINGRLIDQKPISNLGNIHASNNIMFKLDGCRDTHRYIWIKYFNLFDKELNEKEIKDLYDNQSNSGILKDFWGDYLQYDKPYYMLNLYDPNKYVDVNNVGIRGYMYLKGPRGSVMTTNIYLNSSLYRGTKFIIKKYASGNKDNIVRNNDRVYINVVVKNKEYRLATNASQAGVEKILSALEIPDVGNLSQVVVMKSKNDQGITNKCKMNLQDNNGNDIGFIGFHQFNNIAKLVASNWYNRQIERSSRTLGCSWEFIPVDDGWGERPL

Take `CC(=O)O[C@@H]1C[C@H](O)[C@@]23CO[C@@H](O)[C@]1(C)[C@@H]2C[C@@H](O)[C@]1(C)[C@@H]3C(=O)[C@H](OC(C)=O)[C@@]2(C)[C@H](c3ccoc3)C[C@H]3O[C@]321` [Toosendanin]: the “SNAP25 cleavage in presence of Toosendanin” value is recorded as “only full-length SNAP25 was detected; also recorded: protects against BoNT/A induced SNAP25 cleavage”.

The values above are taken from patent publication US8940477B2 (priority 2007, dated 2015).
